One series deals with T1, Ba/F3 KIF5B-RET cells (Homo sapiens, UniProt P07949).
T1 construct: fused on or other part: P33176 (Kinesin-1 heavy chain)
Kind of series: Inhibition of proliferation of Ba/F3 KIF5B-RET cells (CellTiter-Glo). Particulars: 72 to 144 hours. It counts as cell-based. How it is done:
When Ba/F3 KIF5B-RET cells were cultured to the appropriate cell density, cells were collected, and the cells were adjusted to the appropriate cell concentration using complete medium, and the cell suspension was spread in a 96-well plate, 90 μL per well, and placed in the wall of a 37° C., 5% CO2 incubator overnight; compound solutions of different concentrations were prepared using DMSO and culture medium; a solvent control was set, and the compound solution was added to a 96-well plate with […] at 37° C. in a 5% CO2 incubator for 72 to 144 hours, CellTiter-Glo solution was added thereto and mixed well by shaking, incubated for 10 minutes in the dark, and read by BioTek Synergy H1 microplate reader.
The IC50 values were obtained by using the luminescence signal values to calculate the inhibition rate, the concentrations and the inhibition rates were fitted to a nonlinear regression curve using Graphpad Prism software.

Series [1] concerns TT cells (MTC, RET C634W). Kind of series: Inhibition of proliferation of TT cells (CellTiter-Glo, 72 h). It counts as cell-based. Particulars: Homo sapiens. How it is done:
TT cells were purchased from the cell bank of the Chinese Academy of Sciences.
When TT cells were cultured to the appropriate fusion level, TT cells were collected, and the cells were adjusted to the appropriate cell concentration using complete medium, and the cell suspension was spread in a 96-well plate, 90 μL per well, and placed to the wall of a 37° C., 5% CO2 incubator overnight; and compound solutions of different concentrations were prepared using DMSO and culture medium; and a solvent control was set, the compound solution was added to a 96-well plate, 10 μL per well, and placed to the wall of a 37° C., 5% CO2 incubator for 72 hours; CellTiter-Glo solution was added thereto and the mixture was mixed well by shaking, incubated for 10 minutes in the dark, and read by BioTek Synergy H1 microplate reader.
The IC50 values were obtained by using luminescence signal values to calculate the inhibition rate, the concentration and the inhibition rate were fitted to a nonlinear regression curve using Graphpad Prism software.
Background: ATP-based viability assays read luminescence as a measure of living cells.

Another series deals with T2, KDR kinase (Homo sapiens, UniProt P35968).
T2 construct: purchased Carna 08-191
T2 sequence (P35968 20-1356): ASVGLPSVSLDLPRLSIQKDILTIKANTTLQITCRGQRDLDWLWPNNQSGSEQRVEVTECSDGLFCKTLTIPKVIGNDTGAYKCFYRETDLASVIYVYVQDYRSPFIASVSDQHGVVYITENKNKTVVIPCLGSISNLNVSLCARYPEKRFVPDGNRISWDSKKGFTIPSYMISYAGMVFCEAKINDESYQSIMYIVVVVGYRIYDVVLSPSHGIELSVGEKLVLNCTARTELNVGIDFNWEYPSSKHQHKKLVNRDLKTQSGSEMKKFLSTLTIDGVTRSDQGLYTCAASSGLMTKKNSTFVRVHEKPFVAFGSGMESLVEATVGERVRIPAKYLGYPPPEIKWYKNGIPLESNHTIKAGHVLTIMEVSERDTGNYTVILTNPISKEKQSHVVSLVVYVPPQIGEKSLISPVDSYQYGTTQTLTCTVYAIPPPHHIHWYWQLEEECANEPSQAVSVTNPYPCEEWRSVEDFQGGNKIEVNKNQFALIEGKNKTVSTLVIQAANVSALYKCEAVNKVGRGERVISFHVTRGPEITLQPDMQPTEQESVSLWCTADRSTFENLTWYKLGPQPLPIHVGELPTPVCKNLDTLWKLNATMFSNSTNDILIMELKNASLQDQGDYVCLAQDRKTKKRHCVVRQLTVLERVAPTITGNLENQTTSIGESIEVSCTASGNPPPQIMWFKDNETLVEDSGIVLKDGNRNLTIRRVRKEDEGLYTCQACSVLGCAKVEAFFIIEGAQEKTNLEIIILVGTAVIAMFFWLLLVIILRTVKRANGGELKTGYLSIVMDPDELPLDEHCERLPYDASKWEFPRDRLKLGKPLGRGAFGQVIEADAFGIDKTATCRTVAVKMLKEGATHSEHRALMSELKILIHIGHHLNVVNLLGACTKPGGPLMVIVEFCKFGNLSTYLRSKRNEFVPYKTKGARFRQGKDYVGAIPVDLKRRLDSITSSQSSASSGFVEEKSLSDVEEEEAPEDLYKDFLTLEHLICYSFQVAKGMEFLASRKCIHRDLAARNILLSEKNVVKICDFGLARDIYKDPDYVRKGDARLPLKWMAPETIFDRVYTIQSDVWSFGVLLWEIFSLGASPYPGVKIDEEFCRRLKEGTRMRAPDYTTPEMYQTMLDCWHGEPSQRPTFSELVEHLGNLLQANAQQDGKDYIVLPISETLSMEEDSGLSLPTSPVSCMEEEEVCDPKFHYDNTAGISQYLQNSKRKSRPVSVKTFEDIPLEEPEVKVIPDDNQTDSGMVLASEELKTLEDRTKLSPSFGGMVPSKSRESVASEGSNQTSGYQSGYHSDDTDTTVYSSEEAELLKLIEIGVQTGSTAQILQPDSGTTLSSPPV
Kind of series: HTRF kinase activity inhibition, KDR. Particulars: for IC50: HTRF, ATP at Km; for Ratio (KDR/RET): KDR IC50 / RET IC50. The format is biochemical. The source says: 2.2 Experimental Reagents: • KDR kinase was purchased from Carna Company, and the article number was 08-191; • HTRF KinEASE-TK kit was purchased from Cisbio Company, and the article number was 62TK0PEC; • ATP was purchased from Thermofisher Company, and the article number was PV3227; • 384-well plate was purchased from PerkinElmer Company, and the article number was 6007290.
In this experiment, the homogeneous time-resolved fluorescence (HTRF) method was used for the detection of compounds on KDR kinase activity.
On the technique in general: Time-resolved FRET reads energy transfer from a long-lived donor to a nearby acceptor.

The nature of series [2]: Balb/C mouse pharmacokinetics, oral 5 mg/kg. The format is in vivo, Balb/C mice. Particulars: male, p.o. 5 mg/kg, plasma; for MRT: read-out: Average residence time MRT; for Cmax: read-out: Blood concentration Cmax; for AUC(0-t): read-out: Curve area AUC0-t; for AUC(0-inf): read-out: Curve area AUC0-∞; for half-life: read-out: Half-life t1/2 (converted); for Tmax: read-out: Peak time tmax. How it is done: The pharmacokinetic behavior of the following compound embodiments, administered orally at a dose of 5 mg/kg in plasma in mice, was studied using Balb/C mice as test animals.
Balb/C Mouse 6/embodiment, male, Shanghai Jiesijie Laboratory Animal Co., Ltd, Animal Production License No. (SCXK (Shanghai) 2013-0006 N0.311620400001794).
Balb/C mice, males; p.o. after overnight fasting, respectively, at a dose of 5 mg/kg, administered in a volume of 10 mL/kg.
0.5% CMC-Na (1% Tween80) was dissolved by ultrasound, and prepared into clear solution or uniform suspension.
Before and after administration, 0.1 mL of blood was collected from mice at 0, 0.5, 1, 2, 4, 6, 8 and 24 hours by orbital collection, placed in EDTA-K2 tubes, centrifuged at 6000 rpm at 4° C. for 6 minutes to separate plasma, and stored at −80° C.
2.5 Sample Handling: • 1) 40 μL of plasma sample was precipitated by adding 160 μL of acetonitrile, mixed and centrifuged at 3500×g for 5-20 minutes. • 2) 100 μL of the supernatant solution after treatment was taken to analyze the concentration of the test compound by LC/MS/MS.
2.6 Liquid Phase Analysis • Liquid phase conditions: Shimadzu LC-20AD pump • Mass spectrometry conditions: AB Sciex API 4000 mass spectrometer • Chromatographic column: phenomenex Gemiu 5 μM C18 50×4.6 mm • Mobile phase: Liquid A was 0.1% formic acid aqueous solution, liquid B was acetonitrile • Flow rate: 0.8 mL/min • Elution time: 0-4.0 minutes, the eluent was as follows:
The main pharmacokinetic parameters were calculated by WinNonlin 6.1 and the results of the mouse pharmacokinetic experiments were shown in Table 13 below.

Another series addresses T3, RET kinase (Homo sapiens, UniProt P07949).
T3 construct: purchased Carna 08-159
Kind of series: HTRF kinase activity inhibition, RET wild-type. Particulars: ATP at Km. It counts as biochemical. The source says:
2.2 Experimental Reagents: • RET enzyme was purchased from Carna Company, and the article number was 08-159; • RET M918T enzyme was purchased from Carna Company, and the article number was 08-508; • KIF5B-RET was purchased from SignalChem Company, the article number was R02-19FG-05; • CCDC6-RET was purchased from SignalChem Company, the article number was R02-19BG-05; • RET V804M enzyme was purchased from Thermofisher Company, and the article number was PV6223; • RET V804L enzyme was purchased from Thermofisher Company, and the article number was PV4397; • HTRF KinEASE-TK kit was purchased from Cisbio Company, and the article number was 62TK0PEC; • ATP was purchased from Thermofisher Company, and the article number was PV3227; • 384-well plate was purchased from PerkinElmer Company, and the article number was 6007290.
In this experiment, a homogeneous time-resolved fluorescence (HTRF) method was used for the detection of compounds on RET kinase activity.

The source of these data is patent US20230406865A1, “CRYSTAL FORM OF FREE BASE OF INHIBITOR CONTAINING BICYCLIC RING DERIVATIVE AND PREPARATION METHOD AND APPLICATION OF CRYSTAL FORM” (SHANGHAI HANSOH BIOMEDICAL CO., LTD., priority 2020, published 2023).

As a reminder, the IC50 is the concentration that inhibits the measured activity by half. Usually MRT stands for a mean duration of stay, worked out from the concentration-time curve. As usually defined, the Tmax is the time from dosing to the highest level.

T3 sequence (P07949 29-1114): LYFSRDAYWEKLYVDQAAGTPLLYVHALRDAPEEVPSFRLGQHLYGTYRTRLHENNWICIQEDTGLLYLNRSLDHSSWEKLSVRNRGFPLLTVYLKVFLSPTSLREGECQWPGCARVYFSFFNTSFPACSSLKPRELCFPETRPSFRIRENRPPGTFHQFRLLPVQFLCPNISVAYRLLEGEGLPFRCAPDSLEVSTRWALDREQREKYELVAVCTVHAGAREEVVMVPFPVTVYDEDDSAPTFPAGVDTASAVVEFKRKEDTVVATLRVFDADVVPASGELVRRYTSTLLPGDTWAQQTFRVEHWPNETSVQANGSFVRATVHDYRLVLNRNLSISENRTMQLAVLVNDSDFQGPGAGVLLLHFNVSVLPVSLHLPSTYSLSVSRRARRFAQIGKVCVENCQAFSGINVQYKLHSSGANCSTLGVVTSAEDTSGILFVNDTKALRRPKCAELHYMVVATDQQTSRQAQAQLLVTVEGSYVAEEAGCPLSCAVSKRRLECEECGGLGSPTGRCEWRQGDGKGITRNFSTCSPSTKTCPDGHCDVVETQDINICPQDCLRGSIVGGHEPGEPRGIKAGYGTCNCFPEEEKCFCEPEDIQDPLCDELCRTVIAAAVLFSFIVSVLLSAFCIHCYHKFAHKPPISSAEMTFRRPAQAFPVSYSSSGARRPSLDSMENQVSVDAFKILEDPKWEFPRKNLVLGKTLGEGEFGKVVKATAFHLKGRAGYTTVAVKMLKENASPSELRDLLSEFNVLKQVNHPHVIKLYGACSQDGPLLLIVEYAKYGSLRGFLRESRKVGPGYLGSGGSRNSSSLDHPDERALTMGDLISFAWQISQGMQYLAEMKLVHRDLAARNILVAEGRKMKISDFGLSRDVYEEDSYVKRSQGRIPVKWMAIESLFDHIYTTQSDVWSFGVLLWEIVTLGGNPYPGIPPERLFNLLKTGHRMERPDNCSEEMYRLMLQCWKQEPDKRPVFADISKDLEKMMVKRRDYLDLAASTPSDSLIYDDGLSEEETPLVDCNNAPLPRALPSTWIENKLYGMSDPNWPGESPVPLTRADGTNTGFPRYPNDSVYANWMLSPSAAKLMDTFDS
T1 sequence (P07949 whole entry, change not shown, the tested form may be a part): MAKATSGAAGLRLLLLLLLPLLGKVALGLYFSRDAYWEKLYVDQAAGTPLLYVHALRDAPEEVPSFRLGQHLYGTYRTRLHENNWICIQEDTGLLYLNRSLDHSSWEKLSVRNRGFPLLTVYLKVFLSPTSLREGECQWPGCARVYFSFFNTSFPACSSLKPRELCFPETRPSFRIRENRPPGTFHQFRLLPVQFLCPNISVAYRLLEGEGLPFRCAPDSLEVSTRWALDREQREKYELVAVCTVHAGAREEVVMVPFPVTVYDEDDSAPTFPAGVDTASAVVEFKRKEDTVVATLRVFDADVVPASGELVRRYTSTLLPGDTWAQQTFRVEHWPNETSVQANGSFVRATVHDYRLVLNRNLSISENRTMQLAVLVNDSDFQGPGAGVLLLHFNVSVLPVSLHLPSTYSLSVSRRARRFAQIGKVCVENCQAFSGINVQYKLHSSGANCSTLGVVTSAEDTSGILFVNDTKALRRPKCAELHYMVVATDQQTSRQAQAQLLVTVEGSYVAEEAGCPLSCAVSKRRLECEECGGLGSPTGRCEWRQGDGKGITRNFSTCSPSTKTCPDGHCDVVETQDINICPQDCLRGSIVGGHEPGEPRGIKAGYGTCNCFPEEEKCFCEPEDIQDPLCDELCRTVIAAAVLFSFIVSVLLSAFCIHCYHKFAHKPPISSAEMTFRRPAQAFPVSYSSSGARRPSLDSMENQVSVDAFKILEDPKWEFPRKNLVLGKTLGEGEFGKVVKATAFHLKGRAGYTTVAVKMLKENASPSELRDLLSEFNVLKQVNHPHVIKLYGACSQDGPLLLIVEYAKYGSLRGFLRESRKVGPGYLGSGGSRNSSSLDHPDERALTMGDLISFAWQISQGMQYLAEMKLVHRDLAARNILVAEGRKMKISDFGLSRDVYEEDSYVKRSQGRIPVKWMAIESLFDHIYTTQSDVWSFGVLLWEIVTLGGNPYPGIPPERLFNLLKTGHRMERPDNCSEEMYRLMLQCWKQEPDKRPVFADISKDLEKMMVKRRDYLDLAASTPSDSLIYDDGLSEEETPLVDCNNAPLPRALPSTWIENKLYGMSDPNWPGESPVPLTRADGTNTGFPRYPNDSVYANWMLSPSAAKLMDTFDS

As to `COCC(C)(O)C#Cc1cc(-c2ccc(N3CC4CC(C3)N4Cc3ccc(OC)nc3)nc2)c2c(C#N)cnn2c1` (stereo not shown) [Embodiment 75, 6-(3-Hydroxy-4-methoxy-3-methylbut-1-yn-1-yl)-4-(6-(6-((6-methoxypyridin-3-yl)methyl)-3,6-diazabicyclo[3.1.1]heptan-3-yl)pyridin-3-yl)pyrazolo[1,5-a]pyridine-3-carbonitrile], the figures for the half-inhibitory concentration (IC50) (on Ba/F3 KIF5B-RET cells; in series [1]) were 34.7 nM and 24.4 nM, respectively.
Regarding `COc1ncc(CN2C3CC2CN(c2ccc(-c4cc(N5CC(C)(O)C5)cn5ncc(C#N)c45)cn2)C3)cc1F` [Embodiment 73, 4-(6-(6-((5-Fluoro-6-methoxypyridin-3-yl)methyl)-3,6-diazabicyclo[3.1.1]heptan-3-yl)pyridin-3-yl)-6-(3-hydroxy-3-methylazetidin-1-yl)pyrazolo[1,5-a]pyridine-3-carbonitrile], the IC50 at Ba/F3 KIF5B-RET cells worked out at 12 nM; in series [1] it was 5.95 nM.
For `CC(C)(N)C#Cc1cc(-c2ccc(N3CCC(C)(NC(=O)c4ncccc4Cl)CC3)nc2)c2c(C#N)cnn2c1` [Embodiment 86, N-(1-(5-(6-(3-Amino-3-methylbut-1-yn-1-yl)-3-cyanopyrazolo[1,5-a]pyridin-4-yl)pyridin-2-yl)-4-methylpiperidin-4-yl)-3-chloropicolinamide] the same measures were 15.4 nM and 14.6 nM.
As to `COc1ccc(CN2C3CC2CN(c2ccc(-c4cc(OCC5(C#N)CCOCC5)cn5ncc(C#N)c45)cn2)C3)cn1` [Embodiment 59, 6-((4-Cyanotetrahydro-2H-pyran-4-yl)methoxy)-4-(6-(6-((6-methoxypyridin-3-yl)methyl)-3,6-diazabicyclo[3.1.1]heptan-3-yl)pyridin-3-yl)pyrazolo[1,5-a]pyridine-3-carbonitrile], at KDR kinase, half-maximal inhibition (IC50) was put at 184 nM and the “Ratio (KDR/RET)” value was 317. The IC50 at Ba/F3 KIF5B-RET cells was 34 nM. Further, in series [2], the MRT was 4.27 h, the Cmax came to 1330 ng/mL, the AUC(0-t) stood at 7340 ng·h/mL and the AUC(0-inf) came to 7370 ng·h/mL. In addition, in series [2], the half-life is 2.34 h and the Tmax was 0.5 h. This molecule returned an IC50 against RET kinase of 0.58 nM.
Consider `COc1ccc(CN2C3CC2CN(c2ccc(-c4cc(C#CC5(O)CCOCC5)cn5ncc(C#N)c45)cn2)C3)cn1` [Embodiment 78, 6-((4-Hydroxytetrahydro-2H-pyran-4-yl)ethynyl)-4-(6-(6-((6-methoxypyridin-3-yl)methyl)-3,6-diazabicyclo[3.1.1]heptan-3-yl)pyridin-3-yl)pyrazolo[1,5-a]pyridine-3-carbonitrile], for which the IC50 on Ba/F3 KIF5B-RET cells came out at 15.6 nM; in series [1], 13.9 nM.
Regarding `COc1ncc(CN2C3CC2CN(c2ccc(-c4cc(C#CC5(O)COC5)cn5ncc(C#N)c45)cn2)C3)cc1F` [Embodiment 81, 4-(6-(6-((5-Fluoro-6-methoxypyridin-3-yl)methyl)-3,6-diazabicyclo[3.1.1]heptan-3-yl)pyridin-3-yl)-6-((3-hydroxyoxetan-3-yl)ethynyl)pyrazolo[1,5-a]pyridine-3-carbonitrile], the values for the 50% inhibitory concentration (IC50) (on Ba/F3 KIF5B-RET cells; in series [1]) were 16.8 nM and 13.8 nM, respectively.
For `COc1ncc(CN2C3CC2CN(c2ccc(-c4cc(N5CC(C)(C#N)C5)cn5ncc(C#N)c45)cn2)C3)cc1F` [Embodiment 76, 6-(3-Cyano-3-methylazetidin-1-yl)-4-(6-(6-((5-fluoro-6-methoxypyridin-3-yl)methyl)-3,6-diazabicyclo[3.1.1]heptan-3-yl)pyridin-3-yl)pyrazolo[1,5-a]pyridine-3-carbonitrile] the same measures were 6.04 nM and 3.48 nM.
`COc1ncc(CN2C3CC2CN(c2ccc(-c4cc(C#C[C@@H](C)O)cn5ncc(C#N)c45)cn2)C3)cc1F` [Embodiment 68, 4-(6-(6-((5-Fluoro-6-methoxypyridin-3-yl)methyl)-3,6-diazabicyclo[3.1.1]heptan-3-yl)pyridin-3-yl)-6-((R)-3-hydroxybut-1-yn-1-yl)pyrazolo[1,5-a]pyridine-3-carbonitrile]: on KDR kinase, the IC50 is 18.9 nM and the “Ratio (KDR/RET)” value turned out to be 43. Further, the IC50 on Ba/F3 KIF5B-RET cells amounted to 26.3 nM. In addition, in series [2], the MRT worked out at 3.47 h, the Cmax came out at 1700 ng/mL, the AUC(0-t) stood at 7210 ng·h/mL and the AUC(0-inf) came to 7220 ng·h/mL. For the same molecule, in series [2], the half-life was 1.73 h and the time to peak (Tmax) stood at 0.5 h. In addition, at RET kinase, the IC50 came to 0.44 nM.
Consider `COc1ncc(CN2C3CC2CN(c2ccc(-c4cc(OCC56CC(CO)(C5)C6)cn5ncc(C#N)c45)cn2)C3)cc1F` [Embodiment 71, 4-(6-(6-((5-Fluoro-6-methoxypyridin-3-yl)methyl)-3,6-diazabicyclo[3.1.1]heptan-3-yl)pyridin-3-yl)-6-((3-(hydroxymethyl)bicyclo[1.1.1]pentan-1-yl)methoxy)pyrazolo[1,5-a]pyridine-3-carbonitrile], for which the IC50 at Ba/F3 KIF5B-RET cells worked out at 5.59 nM; in series [1], 8.65 nM.
On the same counts, the results for `[2H]C([2H])([2H])Oc1ccc(CN2C3CC2CN(c2ccc(-c4cc(C#CC(C)(C)O)cn5ncc(C#N)c45)cn2)C3)cn1` [Embodiment 25, 6-(3-Hydroxy-3-methylbut-1-yn-1-yl)-4-(6-(6-((6-(methoxy-d3)pyridin-3-yl)methyl)-3,6-diazabicyclo[3.1.1]heptan-3-yl)pyridin-3-yl)pyrazolo[1,5-a]pyridine-3-carbonitrile] are 13.5 nM and 15 nM.
Take `COCC(C)(O)C#Cc1cc(-c2ccc(N3CC4CC(C3)N4Cc3cnc(OC)c(F)c3)nc2)c2c(C#N)cnn2c1` (stereo not shown) [Embodiment 61, 4-(6-(6-((5-Fluoro-6-methoxypyridin-3-yl)methyl)-3,6-diazabicyclo[3.1.1]heptan-3-yl)pyridin-3-yl)-6-(3-hydroxy-4-methoxy-3-methylbut-1-yn-1-yl)pyrazolo[1,5-a]pyridine-3-carbonitrile]: the IC50 came out at 11.2 nM against KDR kinase, 16.8 nM at Ba/F3 KIF5B-RET cells and 0.35 nM against RET kinase. Besides, the “Ratio (KDR/RET)” value at KDR kinase is reported as 32.
